ChEMBL document CHEMBL1133391, “Synthesis and antibacterial activity of 2alpha-functionalized 1beta-methylcarbapenems related to KR-21012” (Bioorg Med Chem Lett, 2000)
Values after ≈ are worked out from the molar mass of the structure shown.

Key:
Salmonella typhimurium = experiment: Compound was evaluated for in vitro antibacterial activity against Salmonella Typhimurium by agar dilution method; type: functional, Salmonella enterica subsp. enterica serovar Typhimurium; conditions: Salmonella enterica
Streptococcus pyogenes = experiment: Compound was evaluated for in vitro antibacterial activity against Streptococcus pyogenes 77A strain by agar dilution method; type: functional
Pseudomonas aeruginosa [1] = experiment: Compound was evaluated for in vitro antibacterial activity against Pseudomonas aeruginosa 1771 strain by agar dilution method; type: functional
Staphylococcus aureus [2] = experiment: Compound was evaluated for in vitro antibacterial activity against Staphylococcus aureus 285 strain by agar dilution method; type: functional
Pseudomonas aeruginosa [3] = experiment: Compound was evaluated for in vitro antibacterial activity against Pseudomonas aeruginosa 1771 M strain by agar dilution method; type: functional
Escherichia coli [4] = experiment: Compound was evaluated for in vitro antibacterial activity against Escherichia coli 078 strain by agar dilution method; type: functional
Escherichia coli [5] = experiment: Compound was evaluated for in vitro antibacterial activity against Escherichia coli 1507 E strain by agar dilution method; type: functional
Enterobacter cloacae = experiment: Compound was evaluated for in vitro antibacterial activity against Enterobacter cloacae P99 strain by agar dilution method; type: functional
Klebsiella oxytoca = experiment: Compound was evaluated for in vitro antibacterial activity against Klebsiella oxytoca 1082 E strain by agar dilution method; type: functional
Staphylococcus aureus [6] = experiment: Compound was evaluated for in vitro antibacterial activity against Staphylococcus aureus SG511 strain by agar dilution method; type: functional
Enterococcus faecium = experiment: Compound was evaluated for in vitro antibacterial activity against Streptococcus faecium MD strain by agar dilution method; type: functional
Klebsiella aerogenes = experiment: Compound was evaluated for in vitro antibacterial activity against Klebsiella aerogenes 1522 E strain by agar dilution method; type: functional
Mus musculus [7] = experiment: Area under the curve was determined for the compound at a single subcutaneous administration of 40 mg/kg in mice; type: ADME, organism-based; design: dose 40 mg/kg, route subcutaneous; unit not given here; conditions: in vivo, sc
Mus musculus [8] = experiment: In vivo protective activity administered sc 1 hr after ip Streptococcus pyogenes 77A strain infection in mice; type: functional; conditions: read-out: PD50
[9] = Urinary recovery by disk method using Streptococcus pyogenes (0-24 h); type: ADME, organism-based; conditions: mouse, urine; read-out: UR
[10] = Tmax at a single subcutaneous administration of 40 mg/kg in mice; type: ADME, organism-based; design: dose 40 mg/kg, route subcutaneous; conditions: mouse, in vivo, sc
[11] = Peak concentration at a single subcutaneous administration of 40 mg/kg in mice; type: ADME, organism-based; design: dose 40 mg/kg, route subcutaneous; conditions: mouse, in vivo, sc
Mus musculus [12] = experiment: In vivo protective activity administered sc 1 hr after ip Enterobacter cloacae P strain infection in mice; type: functional; conditions: read-out: PD50
[13] = Half-life at a single subcutaneous administration of 40 mg/kg in mice; type: ADME, organism-based; design: dose 40 mg/kg, route subcutaneous; conditions: mouse, in vivo, sc
Mus musculus [14] = experiment: In vivo protective activity administered sc 1 hr after ip Escherichia coli 078 strain infection in mice; type: functional; conditions: read-out: PD50
[15] = target: T1, Dipeptidase 1 (Sus scrofa) (UniProt P22412); experiment: Compound was evaluated for DHP-1 stability by using purified porcine renal enzyme; type: functional
T1 sequence (whole entry): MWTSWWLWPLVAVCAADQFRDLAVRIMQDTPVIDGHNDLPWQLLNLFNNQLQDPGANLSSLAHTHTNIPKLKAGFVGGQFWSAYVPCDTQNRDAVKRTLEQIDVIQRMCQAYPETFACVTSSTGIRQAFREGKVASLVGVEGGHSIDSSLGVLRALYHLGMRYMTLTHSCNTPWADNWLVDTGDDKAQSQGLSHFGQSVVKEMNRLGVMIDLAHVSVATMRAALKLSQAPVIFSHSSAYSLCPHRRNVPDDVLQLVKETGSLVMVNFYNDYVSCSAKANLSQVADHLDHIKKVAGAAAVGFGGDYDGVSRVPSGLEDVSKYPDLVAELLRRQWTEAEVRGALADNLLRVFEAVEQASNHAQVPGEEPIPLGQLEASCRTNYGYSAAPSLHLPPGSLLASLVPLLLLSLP

[16] = target: T1, Dipeptidase 1 (Sus scrofa); experiment: Compound was evaluated for DHP-1 stability by using purified porcine renal enzyme which is represented as the relative rate of hydrolysis compared to imipenem (rate=100); type: functional

| MIC (Salmonella typhimurium) [µg/mL] | MIC (Streptococcus pyogenes) [µg/mL] | MIC (Pseudomonas aeruginosa [1]) [µg/mL] | MIC (Staphylococcus aureus [2]) [µg/mL] | MIC (Pseudomonas aeruginosa [3]) [µg/mL] | MIC (Escherichia coli [4]) [µg/mL] | MIC (Escherichia coli [5]) [µg/mL] | MIC (Enterobacter cloacae) [µg/mL] | MIC (Klebsiella oxytoca) [µg/mL] | MIC (Staphylococcus aureus [6]) [µg/mL] | MIC (Enterococcus faecium) [µg/mL] | MIC (Klebsiella aerogenes) [µg/mL] | Compound | ED50 (Mus musculus [8]) [mg/kg] | Tmax [10] [min] | Cmax [11] [ng/mL] | half-life [13] [min] | ED50 (Mus musculus [14]) [mg/kg] | further results |
| --- | --- | --- | --- | --- | --- | --- | --- | --- | --- | --- | --- | --- | --- | --- | --- | --- | --- | --- |
| 1.56 | 0.049 | 100 | 0.391 | 6.25 | 0.781 | 0.781 | 6.25 | 12.5 | 0.391 | 12.5 | 6.25 | C[C@H]1C([C@H](O)C(C)(C)C)=C(C(=O)[O-])N2C(=O)[C@H]([C@@H](C)O)C12.[Na+] (stereo not given in full) | – | – | – | – | – | – |
| 0.781 | 0.025 | 100 | 0.781 | 1.56 | 1.56 | 0.391 | 12.5 | 25 | 0.781 | 12.5 | 12.5 | CC(C)[C@H](O)C1=C(C(=O)[O-])N2C(=O)[C@H]([C@@H](C)O)C2[C@H]1C.[Na+] (stereo not given in full) | – | – | – | – | – | – |
| 0.781 | 0.049 | 100 | 0.391 | 6.25 | 0.391 | 0.391 | 0.781 | 12.5 | 0.391 | 12.5 | 0.781 | CC[C@H](O)C1=C(C(=O)[O-])N2C(=O)[C@H]([C@@H](C)O)C2[C@H]1C.[Na+] (stereo not given in full) | – | – | – | – | – | – |
| 0.195 | 0.013 | 100 | 0.098 | 1.56 | 0.195 | 0.195 | 3.12 | 3.12 | 0.098 | 1.56 | 3.12 | CCC(C)[C@@H](O)C1=C(C(=O)[O-])N2C(=O)[C@H]([C@@H](C)O)C2[C@H]1C.[Na+] (stereo not given in full) | – | – | – | – | – | – |

The remaining lines, values behind:

| Compound | MIC (Salmonella typhimurium) [µg/mL] | MIC (Streptococcus pyogenes) [µg/mL] | MIC (Pseudomonas aeruginosa [1]) [µg/mL] | MIC (Staphylococcus aureus [2]) [µg/mL] | MIC (Pseudomonas aeruginosa [3]) [µg/mL] | MIC (Escherichia coli [4]) [µg/mL] | MIC (Escherichia coli [5]) [µg/mL] | MIC (Enterobacter cloacae) [µg/mL] | MIC (Klebsiella oxytoca) [µg/mL] | MIC (Staphylococcus aureus [6]) [µg/mL] | MIC (Enterococcus faecium) [µg/mL] | MIC (Klebsiella aerogenes) [µg/mL] | ED50 (Mus musculus [8]) [mg/kg] | Tmax [10] [min] | Cmax [11] [ng/mL] | half-life [13] [min] | ED50 (Mus musculus [14]) [mg/kg] | further results |
| --- | --- | --- | --- | --- | --- | --- | --- | --- | --- | --- | --- | --- | --- | --- | --- | --- | --- | --- |
| C[C@H]1C([C@H](O)C2CCCC2)=C(C(=O)[O-])N2C(=O)[C@H]([C@@H](C)O)C12.[Na+] (stereo not given in full) | 0.195 | 0.013 | 100 | 0.098 | 0.781 | 0.195 | 0.195 | 6.25 | 3.12 | 0.098 | 0.781 | 1.56 | – | – | – | – | – | – |
| CC(C)[C@@H](O)C1=C(C(=O)[O-])N2C(=O)[C@H]([C@@H](C)O)C2[C@H]1C.[Na+] (stereo not given in full) | 0.098 | 0.007 | 100 | 0.098 | 0.781 | 0.049 | 0.049 | 1.56 | 1.56 | 0.098 | 1.56 | 0.391 | 1.19 | 15 | 25000 | 41.4 | 1.3 | AUC (Mus musculus [7]): 20.9; dose excreted [9]: 25.1%; ED50 (Mus musculus [12]): 1.37 mg/kg; Activity [15]: 21 |
| C[C@H]1C([C@@H](O)C2CC2)=C(C(=O)[O-])N2C(=O)[C@H]([C@@H](C)O)C12.[Na+] (stereo not given in full) | 1.56 | 0.098 | 100 | 0.781 | 3.12 | 1.56 | 0.195 | 0.781 | 6.25 | 0.195 | 3.12 | 0.781 | – | – | – | – | – | – |
| CC[C@@H](O)C1=C(C(=O)[O-])N2C(=O)[C@H]([C@@H](C)O)C2[C@H]1C.[Na+] (stereo not given in full) | 0.391 | 0.625 | 100 | 0.098 | 1.56 | 0.098 | 0.098 | 0.781 | 3.12 | 0.098 | 3.12 | 0.391 | – | – | – | – | – | – |
| CO[C@H]1CCC[C@H]2C1=C(C(=O)[O-])N1C(=O)[C@H]([C@@H](C)O)[C@@H]21.[Na+] [SANFETRINEM SODIUM] | 0.195 | 0.007 | 25 | 0.049 | 0.391 | 0.049 | 0.195 | 3.12 | 1.56 | 0.098 | 1.56 | 0.391 | 1.46 | 22.2 | 28800 | 33 | 3.13 | AUC (Mus musculus [7]): 27.39; dose excreted [9]: 20.5%; ED50 (Mus musculus [12]): 1.18 mg/kg; Activity [15]: 20 |
| C[C@H]1C([C@H](O)C2CC2)=C(C(=O)[O-])N2C(=O)[C@H]([C@@H](C)O)C12.[Na+] (stereo not given in full) | 0.098 | 0.007 | 100 | 0.049 | 1.56 | 0.098 | 0.049 | 0.781 | 0.781 | 0.049 | 0.781 | 0.195 | 7.94 | 10.2 | 18100 | 18.6 | 23.1 | AUC (Mus musculus [7]): 6.86; Activity [16]: 38; dose excreted [9]: 14.3%; ED50 (Mus musculus [12]): 12.6 mg/kg |
| C[C@@H](O)[C@H]1C(=O)N2C(C(=O)O)=C(S[C@@H]3CN[C@H](C(=O)N(C)C)C3)[C@H](C)[C@H]12 [MEROPENEM] | 0.049 (≈ 0.128 µM) | 0.013 (≈ 0.0339 µM) | 0.361 (≈ 0.941 µM) | 0.195 (≈ 0.509 µM) | 0.049 (≈ 0.128 µM) | 0.013 (≈ 0.0339 µM) | 0.025 (≈ 0.0652 µM) | 0.025 (≈ 0.0652 µM) | 0.049 (≈ 0.128 µM) | 0.013 (≈ 0.0339 µM) | 6.25 (≈ 16.3 µM) | 0.049 (≈ 0.128 µM) | 4.6 | 12.6 | 7600 | 14.4 | 1.24 | Activity [15]: 32 |
